Laboratory results as given in patent US20230194530A1, “CIRCULATING CARDIOVASCULAR BIOMARKERS AND VASCULAR STABILIZING THERAPY” (priority 2021, published 2023).

Tested on: VE-cadherin and Claudin-5 in pHUVECs
Assay: Immunofluorescence of VE-cadherin and Claudin-5 junctional staining in pHUVECs treated with COVID-19 patient plasma
Assay type: cell-based, human
Settings: co-treatment with moderate or severe COVID-19 plasma, six hours

Substance: Nangibotide
- disruption of the EC barrier, as examined through junctional protein expression (VE-cadherin, Claudin-5): could maintain junctional protein expression
